The test system of experiment [1] is CNS 42. The experiment can be described thus: MIC, clinical isolates of wound-associated pathogens. The class given is cell-based, Coagulase-negative staphylococci. Particulars: triclosan in the presence of DispersinB 40 μg/ml; clinical isolate CNS 42. As to the method: (§1) The combined antimicrobial activity of DispersinB™ and triclosan was studied by determining minimal inhibitory concentrations (MIC) in a 96 well microtiter plate. Briefly, serial two-fold dilutions of triclosan and in presence of DispersinB™ (40 μg/ml) were performed in TSB. A suspension of each microorganism from Table 1 was added to wells at a concentration of 5×10^5 CFU/mL, and the microtiter plates were incubated at 37° C. The MIC was defined, as the lowest concentration of an antimicrobial required for total inhibition of a test microorganism at 37° C. Triclosan in combination with DispersinB™ was active against all the pathogens tested.
(§2) The antimicrobial activity of DispersinB™ and triclosan combination was studied by determining the minimal inhibitory concentrations (MIC) in 96 well microtiter plates as described in Example 4. Triclosan in combination with DispersinB™ was active against all the pathogens tested (Table 2).

The test system of experiment [2] is CNS 82. The description is as above. The class given is cell-based, Coagulase-negative staphylococci. The following applies: triclosan in the presence of DispersinB 40 μg/ml; clinical isolate CNS 82. As for the experimental part: as §1, §2
Experiment [3] relates to S. aureus 120. Described as above. The class given is cell-based. Particulars: Staphylococcus aureus; triclosan in the presence of DispersinB 40 μg/ml; clinical isolate S. aureus 120. As for the experimental part:
as §1, §2

The test system of experiment [4] is S. aureus 68. The experiment is described as above. The class given is cell-based. The following applies: Staphylococcus aureus; triclosan in the presence of DispersinB 40 μg/ml; clinical isolate S. aureus 68. As to the method: as §1, §2
The test system of experiment [5] is S. aureus Gav 16A. The description is as above. The class given is cell-based. The following applies: Staphylococcus aureus, GAV16A; triclosan in the presence of DispersinB 40 μg/ml; clinical isolate S. aureus Gav 16A. As to the method: as §1, §2
The test system of experiment [6] is Coagulase-negative staphylococci (CNS 11). Described as above. The format is cell-based. Particulars: triclosan in the presence of DispersinB 40 μg/ml; clinical isolate CNS 11. As to the method:
as §1, §2

Experiment [7] has as its system S. epidermidis. The experiment can be described thus: Adhesion assay with coated silicone catheter segments. The format is cell-based, Staphylococcus epidermidis. The following applies: silicone catheter coated with TCSN 10 mg/ml alone versus DispersinB 40 μg/ml alone. As to the method:
(§3) The adhesion assay was performed to determine the synergistic effect of DispersinB™ and TCSN combination coated silicone catheters on S. epidermidis and E. coli colonization. The silicone catheter segments (1 cm each) were coated by dipping in DispersinB™ (40 μg/ml) and TCSN (10 mg/ml in 10% Polyethylene glycol) alone and in combination for overnight at 4° C. followed by drying at room temperature. The coated and uncoated segments were incubated in S. epidermidis and E. coli culture in TSB medium at 37° C. for 24 hours at 100 rpm. After 24 hours of incubation, the sections were washed three times gently. Each washed section was transferred into a sterile tube containing 1 ml sterile saline and subjected to sonication for 30 seconds and followed by 1 minute vortexing. Further, it was serially diluted using sterile saline and plated using Tryptic Soy Agar (TSA) plates. The plates were incubated at 37° C. for 24 hours and the colonies (CFU) were counted.

The test system of experiment [8] is E. coli. The description is as above. The format is cell-based, Escherichia coli. The following applies: silicone catheter coated with TCSN 10 mg/ml alone versus DispersinB 40 μg/ml alone. As for the experimental part: as §3
Experiment [9] deals with P. mirabilis. The experiment can be described thus: MIC in 96 well microtiter plate. The following applies: Proteus mirabilis, triclosan in the presence of DispersinB 40 μg/ml, 37° C. The class given is cell-based. As to the method: as §1
Experiment [10] relates to E. faecium. Put plainly: MIC in 96 well microtiter plate. The class given is cell-based. Particulars: Enterococcus faecium, triclosan in the presence of DispersinB 40 μg/ml, 37° C. As for the experimental part:
as §1

The subject of experiment [11] is E. faecalis. The experiment can be described thus: MIC in 96 well microtiter plate. The format is cell-based. The following applies: Enterococcus faecalis, triclosan in the presence of DispersinB 40 μg/ml, 37° C. As for the experimental part: as §1
The test system of experiment [12] is K. pneumoniae. Put plainly: MIC in 96 well microtiter plate. Particulars: Klebsiella pneumoniae, triclosan in the presence of DispersinB 40 μg/ml, 37° C. The format is cell-based. As to the method:
as §1

The test system of experiment [13] is Enterobacter cloacae. The experiment can be described thus: MIC in 96 well microtiter plate. The format is cell-based. Particulars: triclosan in the presence of DispersinB 40 μg/ml, 37° C. As to the method:
as §1

Experiment [14] concerns E. coli. The experiment can be described thus: MIC in 96 well microtiter plate. The format is cell-based. Particulars: Escherichia coli, triclosan in the presence of DispersinB 40 μg/ml, 37° C. As to the method:
as §1

Experiment [15] concerns S. epidermidis. The experiment can be described thus: MIC in 96 well microtiter plate. The format is cell-based. Particulars: Staphylococcus epidermidis, triclosan in the presence of DispersinB 40 μg/ml, 37° C. As to the method:
as §1

The subject of experiment [16] is S. aureus. Put plainly: MIC in 96 well microtiter plate. The class given is cell-based. Particulars: Staphylococcus aureus, triclosan in the presence of DispersinB 40 μg/ml, 37° C. As for the experimental part: as §1
Experiment [17] has as its system C. albicans. Put plainly: MIC in 96 well microtiter plate. The format is cell-based. The following applies: Candida albicans, triclosan in the presence of DispersinB 40 μg/ml, 37° C. As to the method: as §1

The source of these data is patent US8821862B2, “Soluble β-N-acetylglucosaminidase based antibiofilm compositions and uses thereof” (Kane Biotech Inc., priority 2002, dated 2014).

For `Oc1cc(Cl)ccc1Oc1ccc(Cl)cc1Cl` [triclosan], the MIC in experiment [1] was 0.625 µg/mL; in [2], less than 0.39 µg/mL; in [3] it was less than 0.39 µg/mL; in experiment [4], less than 0.39 µg/mL; in [5] it was less than 0.39 µg/mL; in experiment [6], 25 µg/mL. Moreover, the MIC in [9] turned out to be 12.5 µg/mL; in experiment [10], 12.5 µg/mL; in experiment [11] it was 100 µg/mL; in [12], 25 µg/mL; in [13], 25 µg/mL; in experiment [14] it was 6.25 µg/mL. Further, the MIC is 3.12 µg/mL in [15], less than 0.097 µg/mL in experiment [16] and 100 µg/mL in experiment [17]. The “inhibiting the growth of biofilm-embedded S. epidermidis, coating alone” value in experiment [7] was “more effective than DispersinB™”. Besides, in [8], the “inhibiting the growth of biofilm-embedded E. coli, coating alone” value is listed as “more effective than DispersinB™”.
